Experimental data published in US20250154358A1, “ORGANIC DYE COMPOSITION, AND SPRAY AGENT COMPRISING SAME” (PANASONIC INTELLECTUAL PROPERTY MANAGEMENT CO., LTD., priority 2022, published 2025).

What was measured:
[1] = system: E. coli; test: Color change observation after spraying on bacterial liquid (E. coli); type: cell-based; details: detection of E. coli; statement in the discussion
Experimental: 100 μL of a bacterial liquid (E. coli, […]) was added dropwise onto a slide glass. Then, a sample solution (organic dye composition) of each of Examples and Comparative Examples was placed in a spray bottle (φ39×147 mm, capacity 100 ml), and sprayed (one push) to the bacterial liquid on the slide glass. Thereafter, after leaving for 15 minutes, the following fluorescence observation and color change observation were performed. • Fluorescence observation (visual visibility)
For fluorescence observation, the sprayed part was irradiated with an LED light (530 nm output, color: green), and visual observation was performed through a red filter. The evaluation criteria were as follows. • good: Emission of the solution can be clearly visually recognized • fair: Emission of the solution can be visually recognized but very weak • poor: Emission of the solution cannot be visually recognized • Color change • Color change was visually observed and evaluated according to the following criteria: • good: Color change of the solution can be clearly visually recognized • fair: Color change of the solution can be visually recognized but very weak • poor: Color change of the solution cannot be visually recognized or no color change occurs

[2] = system: Staphylococcus aureus; test: Color change observation after spraying on bacterial liquid (Staphylococcus aureus); type: cell-based; details: detection of S. aureus; statement in the discussion

CC(C)COC(=O)Oc1ccc2nc3ccc(=O)cc-3oc2c1 [Formula (4)]
color change, compared with the dye represented by Formula (2) [1]: more clearly visually recognized
color change, compared with the dye represented by Formula (2) [2]: more clearly visually recognized
